Results as given in PubChem BioAssay (NCI).
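A five-concentration, 48-hour dose response in 96-well plates underlies each endpoint, interpolated linearly between surrounding concentrations. GI50 = concentration required for 50% inhibition of growth. The concentration for full growth arrest is given as TGI.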

Assays:
Test in all cases: NCI anticancer screen, dose series, 48 h
KM12 colon = test system: KM12 colon
SF-539 CNS = test system: SF-539 CNS
SW-620 colon = test system: SW-620 colon
SNB-75 CNS = test system: SNB-75 CNS
UO-31 renal = test system: UO-31 renal
BT-549 breast = test system: BT-549 breast
DU-145 prostate = test system: DU-145 prostate
A498 renal = test system: A498 renal

| Structure (SMILES) | GI50 (KM12 colon) [µM] | TGI (KM12 colon) [µM] | GI50 (SF-539 CNS) [µM] | TGI (SF-539 CNS) [µM] | GI50 (SW-620 colon) [µM] | TGI (SW-620 colon) [µM] | GI50 (SNB-75 CNS) [µM] | TGI (SNB-75 CNS) [µM] | GI50 (UO-31 renal) [µM] | TGI (UO-31 renal) [µM] | GI50 (BT-549 breast) [µM] | TGI (BT-549 breast) [µM] | GI50 (DU-145 prostate) [µM] | TGI (DU-145 prostate) [µM] | GI50 (A498 renal) [µM] | TGI (A498 renal) [µM] |
| --- | --- | --- | --- | --- | --- | --- | --- | --- | --- | --- | --- | --- | --- | --- | --- | --- |
| O=C(O)/C=C(\c1nc2ccc([N+](=O)[O-])cc2[nH]1)c1cc(Cl)ccc1O | 2.84 | 17.7 | 3.1 | 17.8 | 3.66 | 17.6 | 3.14 | 27.6 | 1.54 | 9.01 | 2.3 | 7.25 | 4.12 | > 100 | 2.46 | 8.7 |
| CC1CN1C(=O)NCCCCCCNC(=O)N1CC1C (centres undefined) |  | > 100 |  | 98.2 |  | > 100 |  | > 100 |  | > 100 |  | > 100 |  | > 100 |  | > 100 |
| O=C(Nc1ccc(-c2nc(N3CCOCC3)c3cccn3n2)cc1)Nc1cccnc1 | 0.162 | 16.7 | 0.0396 | 0.296 | 0.0524 | > 100 | 0.0432 | 0.64 | 0.0619 | 0.546 | 0.145 | 0.951 | 0.212 | > 100 | 0.0475 | 0.328 |
| CS(=O)(=O)CCNCc1ccc(-c2ccc3ncnc(Nc4ccc(OCc5ccccc5)cc4)c3c2)o1 | 8.85 | > 25 | 4.91 | 11 | 6.94 | > 17.3 | 5.71 | > 25 | 2.95 | 8.95 | 5.85 | 17.5 | 5.3 | > 25 | 2.98 | 8.27 |
| Nc1nc2c(nnn2C2CC(O)C(CO)O2)c(=O)[nH]1 (centres undefined) | 5.39 | > 100 | 3.12 | > 41 | 3.74 | > 100 | 7.59 | > 100 | 3.96 | > 100 | 4.14 | > 59.9 | 1.45 | > 100 | 8.22 | > 48.1 |
| COc1ccc(-c2nc(-c3nc4ccc(Cl)cc4[nH]3)c3ccccn23)cc1 | 7.68 | > 100 | 1.76 | 3.61 | 4.07 | 22.5 | 1.87 | 3.94 | 1.74 | 4.11 | 2.74 | 6.63 | 3.27 | 11.1 | 5.61 | 29.2 |
| CC1(C)OC2=C(CC1Br)C(=O)C(=O)c1ccccc12 (centres undefined) | 1.75 | 3.19 | 1.82 | 3.37 | 1.91 | 3.49 | 1.82 | 3.26 | 1.35 | 2.76 | 1.85 | 3.34 | 1.67 | 3.05 | 1.43 | 3.07 |
| NC(=O)NS(=O)(=O)c1ccc(N2N=C(C(F)(F)F)CC2c2cc(C(F)(F)F)cc(C(F)(F)F)c2)cc1 (centres undefined) | 1.83 | 4.65 | 11.9 | 24.7 | 4.1 | 15.7 | 2.86 | 15.3 | 0.0862 | 13.2 | 4.28 | 16.5 | 3.54 | 15.1 | 2.24 | 8.15 |
| O=C(O)C(=Cc1ccc(-c2ccccc2)cc1)C(=O)O |  | 40.9 |  | 19.3 |  | 97.5 |  | 28 |  | 27.6 |  | 29.4 |  | > 39 |  | 40 |
| O=S(=O)(NC1=NCCN1C(=S)SN1CCn2c1nsc2=S)c1cccc(Cl)c1 | 16.6 | 34.1 | 19.4 | 34.2 | 22.9 | > 100 | 29.2 | 55.6 | 14.4 | 28.6 | 22.3 | 68.4 | 22.2 | 64.6 | 34.3 | 81.5 |
